{"source": "patent US20250228881A1", "about": "“COMPOSITION FOR PREVENTION OR TREATMENT OF MULTIPLE MYELOMA COMPRISING NOVEL T[…] AS ACTIVE INGREDIENT” (KBLUEBIO INC, priority 2021, published 2025)", "key": {"[1]": {"tested_on": "human-derived multiple myeloma cell lines ARH77, U266, and RPMI 8226", "assay": "Multiple myeloma mouse xenograft model, tail vein administration", "type": "in vivo", "details": "xenograft mice", "protocol": "Using xenograft models obtained by injecting the same human-derived multiple myeloma cell lines ARH77, U266, and RPMI 8226 into mice, each of KBB-N2 was injected into the vein tail at 7 mg/Kg/day, and as a positive control, lenalidomide, which is currently widely used as a therapeutic agent for multiple myeloma in clinical practice, was injected into the vein tail at 1 mg/Kg/day."}, "[2]": {"tested_on": "normal hematopoietic stem cells", "assay": "Progenitor colony formation of normal PBSC fraction on methylcellulose (toxicity to hematopoietic stem cells)", "type": "cell-based", "details": "normal donor PBSC, 2 weeks, KBB-N2 up to 60 μM", "protocol": "G-CSF was subcutaneously injected into a normal donor to mobilize hematopoietic stem cells, and a peripheral blood stem cell (PBSC) fraction was extracted from the donor's peripheral blood by leukapheresis. The obtained normal PBSC fraction and KBB-N2 were cultured on methylcellulose for 2 weeks, and the cytotoxicity of KBB-N2 to hematopoietic stem cells was evaluated by counting the number of the formed erythroid progenitor colonies and leukocyte/megakaryocytic progenitor colonies."}, "[3]": {"tested_on": "multiple myeloma cell lines", "assay": "Co-treatment of multiple myeloma cell lines with KBB-N2 and lenalidomide (killing effect)", "type": "cell-based, Human", "details": "co-treated with lenalidomide, compared with lenalidomide alone", "protocol": "Multiple myeloma cells IM-9 and RPMI 8226 (3×10^6 cells/mL) treated with KBB-N2 for 48 hours were washed with 1x PBS (phosphate-buffered saline, pH 7.4) and fixed with 70% ethanol. After washing several times with 1×PBS, 5 μL of Annexin V-FITC and 5 μL of PI (propidium iodine) (Sigma-Aldrich, St. Louis, MO) were added to 500 μL of 1×PBS containing the cells (1×10^6 cells/mL) suspended therein, followed by staining in a dark room at room temperature for 30 minutes. Then, 500 μL of 1× binding buffer was added thereto, and flow cytometry was performed using FACSCalibur (Becton Dickinson, Franklin Lakes, NJ, USA), followed by analysis using the CellQuest software (Becton Dickinson) program."}, "RPMI 8226 cells": {"tested_on": "RPMI 8226 cells", "assay": "Quantitative RT-PCR array of 84 apoptosis-related genes after KBB-N2 treatment", "type": "cell-based, Human", "details": "50 μM KBB-N2, 48 hours", "protocol": "To investigate the cell death mechanism induced by treatment with KBB-N2, changes in the expression of apoptosis-related genes in a multiple myeloma cell line were measured. 50 μM of KBB-N2 was added to multiple myeloma cells (million cells/mL), followed by 48 hours of culture. Then, total RNA was extracted and the expression levels of 84 apoptosis-related genes were analyzed using quantitative RT-PCR array (Cat #PAHS-012Z; Qiagen Seoul, Seoul, Korea). After treating the cells with 50 μM of KBB-N2, the cells were cultured for 48 hours, and total RNA was isolated from the RPMI 8226 cells using the RNAqueous total RNA isolation kit (Thermo Fisher Scientific). Contaminating genomic DNA in the extracted RNA was removed using an RNase-Free DNase set (Qiagen). Total RNA (5 ug) was reverse transcribed into cDNA in a reaction volume of 10 μL using the RT2 First Strand Kit (Qiagen). Next, 10 μL of cDNA was combined with each primer set of the human apoptosis-related RT2 Profiler PCR Array (Qiagen) according to the manufacturer's protocol. Amplification reactions were performed using the real-time polymerase chain reaction system CFX96 (Bio-Rad, Hercules, CA, USA) with automated baseline and threshold cycle detection. The relative expression of […] genes was normalized to five built-in housekeeping genes. Each group was analyzed by the web-based software GeneGlobe Data Analysis Center (Qiagen)."}}, "note": "“Also recorded” adds a separate entry of the source.", "data": [{"molecule": "CC(C)=CCC[C@](C)(O)[C@H]1CC[C@]2(C)[C@@H]1[C@H](O)C[C@@H]1[C@@]3(C)CC[C@H](O[C@@H]4O[C@H](CO)[C@@H](O)[C@H](O)[C@H]4O)C(C)(C)[C@@H]3CC[C@]12C", "note": "[KBB-N2]", "values": [{"measurement": "therapeutic effect for multiple myeloma", "setting": "[1]; KBB-N2 7 mg/Kg/day tail vein vs positive control lenalidomide 1 mg/Kg/day tail vein", "result": "therapeutic effect equal to or higher than that of traditional lenalidomide"}, {"measurement": "effect on multiple myeloma treatment in bone marrow biopsy after treatment", "setting": "[1]; bone marrow biopsy after treatment", "result": "effect of KBB-N2 on multiple myeloma treatment was also found"}, {"measurement": "cytotoxicity to hematopoietic stem cells: number and morphology/formation of progenitor cell colonies", "setting": "[2]", "result": "not toxic to normal hematopoietic stem cells; also recorded: not significantly inhibited"}, {"measurement": "killing effect on co-treatment with lenalidomide", "setting": "[3]", "result": "killing effect was higher"}, {"measurement": "overexpression of apoptosis-related gene APAF1", "setting": "RPMI 8226 cells", "result": "at least 2 fold"}, {"measurement": "overexpression of apoptosis-related gene BAD", "setting": "RPMI 8226 cells", "result": "at least 2 fold"}, {"measurement": "overexpression of apoptosis-related gene BCL2", "setting": "RPMI 8226 cells", "result": "at least 3 fold"}, {"measurement": "overexpression of apoptosis-related gene BCL2L1", "setting": "RPMI 8226 cells", "result": "at least 2 fold"}, {"measurement": "overexpression of apoptosis-related gene CAS7", "setting": "RPMI 8226 cells", "result": "at least 3 fold"}, {"measurement": "overexpression of apoptosis-related gene CASP2", "setting": "RPMI 8226 cells", "result": "at least 2 fold"}, {"measurement": "overexpression of apoptosis-related gene CASP3", "setting": "RPMI 8226 cells", "result": "at least 2 fold"}, {"measurement": "overexpression of apoptosis-related gene DAPK1", "setting": "RPMI 8226 cells", "result": "at least 4 fold"}, {"measurement": "overexpression of apoptosis-related gene FADD", "setting": "RPMI 8226 cells", "result": "at least 2 fold"}, {"measurement": "overexpression of apoptosis-related gene HRK", "setting": "RPMI 8226 cells", "result": "at least 2 fold"}, {"measurement": "overexpression of apoptosis-related gene IGFIR", "setting": "RPMI 8226 cells", "result": "at least 2 fold"}, {"measurement": "overexpression of apoptosis-related gene LTBR", "setting": "RPMI 8226 cells", "result": "at least 2 fold"}, {"measurement": "overexpression of apoptosis-related gene NAIP", "setting": "RPMI 8226 cells", "result": "at least 2 fold"}, {"measurement": "overexpression of apoptosis-related gene NOD1", "setting": "RPMI 8226 cells", "result": "at least 2 fold"}, {"measurement": "overexpression of apoptosis-related gene NOL3", "setting": "RPMI 8226 cells", "result": "at least 2 fold"}, {"measurement": "overexpression of apoptosis-related gene TNF", "setting": "RPMI 8226 cells", "result": "at least 2 fold"}, {"measurement": "overexpression of apoptosis-related gene TNFRF1A", "setting": "RPMI 8226 cells", "result": "at least 2 fold"}, {"measurement": "overexpression of apoptosis-related gene TNFRSF1B", "setting": "RPMI 8226 cells", "result": "at least 2 fold"}, {"measurement": "overexpression of apoptosis-related gene TNFRSF10A", "setting": "RPMI 8226 cells", "result": "at least 2 fold"}, {"measurement": "overexpression of apoptosis-related gene TNFRSF10B", "setting": "RPMI 8226 cells", "result": "at least 2 fold"}, {"measurement": "overexpression of apoptosis-related gene TNFRSF25", "setting": "RPMI 8226 cells", "result": "at least 2 fold"}, {"measurement": "overexpression of apoptosis-related gene TP53", "setting": "RPMI 8226 cells", "result": "at least 2 fold"}, {"measurement": "overexpression of apoptosis-related gene TRADD", "setting": "RPMI 8226 cells", "result": "at least 2 fold"}, {"measurement": "overexpression of apoptosis-related gene XIAP", "setting": "RPMI 8226 cells", "result": "at least 2 fold"}]}]}
